Test results taken from ChEMBL document CHEMBL3217754, “Nitro-based inhibitors against thermolysin” (Medchemcomm, 2011).

What follows are compounds tested against T1, Thermolysin (Bacillus thermoproteolyticus, UniProt P00800) (assay: Competitive inhibition of Bacillus thermoproteolyticus thermolysin using N-[3-(2-furyl)acryloyl]Gly-L-Leu-NH2 as substrate by Dixon plot analysis).
T1 sequence (P00800 whole entry): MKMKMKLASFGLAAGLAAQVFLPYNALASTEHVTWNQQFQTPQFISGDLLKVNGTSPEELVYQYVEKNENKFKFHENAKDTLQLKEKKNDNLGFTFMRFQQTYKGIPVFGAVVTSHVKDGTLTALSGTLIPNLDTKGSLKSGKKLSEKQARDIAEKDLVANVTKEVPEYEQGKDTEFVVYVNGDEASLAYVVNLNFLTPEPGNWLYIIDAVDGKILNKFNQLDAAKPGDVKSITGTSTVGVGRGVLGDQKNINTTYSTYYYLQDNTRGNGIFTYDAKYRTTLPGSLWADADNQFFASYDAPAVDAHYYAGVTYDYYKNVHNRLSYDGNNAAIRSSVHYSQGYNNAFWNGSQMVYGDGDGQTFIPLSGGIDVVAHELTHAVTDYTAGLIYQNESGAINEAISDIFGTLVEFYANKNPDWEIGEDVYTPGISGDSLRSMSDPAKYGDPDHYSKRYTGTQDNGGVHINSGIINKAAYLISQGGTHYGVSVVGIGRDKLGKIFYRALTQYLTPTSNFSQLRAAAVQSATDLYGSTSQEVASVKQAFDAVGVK
NC(=O)[C@H](Cc1ccccc1)C[N+](=O)[O-] gave a Ki of 7.6 µM. Work on NC(=O)[C@@H](Cc1ccccc1)C[N+](=O)[O-] yielded a Ki of 663 µM. Compound COC(=O)[C@H](Cc1ccccc1)NC(=O)[C@H](Cc1ccccc1)C[N+](=O)[O-] has a Ki of 0.95 µM. For COC(=O)[C@H](Cc1ccccc1)NC(=O)[C@@H](Cc1ccccc1)C[N+](=O)[O-], the Ki was 79 µM. Compound COC(=O)[C@@H](Cc1ccccc1)NC(=O)[C@H](Cc1ccccc1)C[N+](=O)[O-] has a Ki of 1.4 µM. For COC(=O)[C@@H](Cc1ccccc1)NC(=O)[C@@H](Cc1ccccc1)C[N+](=O)[O-], the Ki was 86 µM. Work on COC(=O)[C@H](Cc1ccccc1)NC(=O)[C@H](CC(C)C)C[N+](=O)[O-] yielded a Ki of 0.84 µM. COC(=O)[C@H](Cc1ccccc1)NC(=O)[C@@H](CC(C)C)C[N+](=O)[O-] showed a Ki of 7.2 µM. For COC(=O)[C@H](CC(C)C)NC(=O)[C@H](Cc1ccccc1)C[N+](=O)[O-], the Ki was 0.37 µM. COC(=O)[C@H](CC(C)C)NC(=O)[C@@H](Cc1ccccc1)C[N+](=O)[O-] showed a Ki of 2.4 µM. Work on COC(=O)[C@H](CC(C)C)NC(=O)[C@H](CC(C)C)C[N+](=O)[O-] yielded a Ki of 0.083 µM. For COC(=O)[C@H](CC(C)C)NC(=O)[C@@H](CC(C)C)C[N+](=O)[O-], the Ki was 0.77 µM. NC(=O)C(Cc1ccccc1)C[N+](=O)[O-] (racemic) showed a Ki of 36 µM.
